Results on 1 compound are retold here after patent US20240398823A1, “DUAL INHIBITOR OF HISTONE DEACETYLASE 6 AND HEAT SHOCK PROTEIN 90” (TAIPEI MEDICAL UNIVERSITY, priority 2021, published 2024).

In assay [1] the test system is acetylation of α-tubulin and histone H3. The assay is described as follows: Western blot of α-tubulin and histone H3 acetylation in HCT116. In kind it is cell-based, human. Conditions: HCT116, 0.25-1 μM, 6 hours. The protocol:
The ability of α-tubulin and histone H3 acetylation was measured.
The effects of the HSP90/HDAC6 dual inhibitors as described in Synthesis Examples (such as Compounds 63, 64, and 66 to 76) on several factors were evaluated. Cells were lysed in RIPA buffer (Thermo Fisher Scientific, Wal-tham, MA, USA) and protease inhibitor (Roche, Basel, CH). Sample were further separated in 8% or 15% SDS-PAGE and transferred to nitrocellulose membrane and blocked with 5% skim milk (w/v in PBS). Nitrocellulose membranes were then incubated with primary antibodies against the following antigens: HSP90, Src, AKT, Rb, phosphorylated Rb (p-Rb), FAK, HSP70, α-tubulin acetylation, acetyl histone H3, phosphorylated STAT1 (p-STAT1), STAT1 (Cell signaling, Danvers, MA, USA), α-tubulin, Histone H3 (Genetex, Irvine, USA), IDO (Santa Cruz Biotechnology Dallas, TX, USA) and PD-L1 (Novus, Littleton, CO, USA) at 4° C. for overnight. The target proteins were visualized by using HRP-conjugated secondary antibodies (Jackson ImmunoResearch Laboratories, West Grove, PA, USA) and enhanced chemiluminescence kit (Thermo Fisher Scientific, Waltham, MA, U.S.A.).
The ability of Compound 75 on the acetylation of α-tubulin and histone H3 was evaluated. HCT116 cells were administered with Compound 75 for 6 hours and analyzed by western blot. […] Next, whether Compound 75 inhibited HSP90 was evaluated. […]
Background: Immunoblotting shows a protein as a band on a membrane.

For assay [2], the system named is human colon normal epithelial cells (CCD841CON). The assay is described as follows: MTT cytotoxicity to normal cells, CCD841CON. The class given is cell-based. Conditions: CCD-841CoN, 48 hours, read-out: IC50, proliferation of CCD841CON. On the procedure: FIGS. 3A and 3B show the effects of Compound 75 on cytotoxicity to normal cell lines. Cells were treated with DMSO or different concentrations of Compound 75 for 48 hours and cell viability was assessed by MTT assay. […] Data are expressed as mean t S.D. N values greater than 3. * P<0.05; ** P<0.01; *** P<0.001, compared with the control group.
The effects on cell viability of the HSP90/HDAC6 dual inhibitors as described in Synthesis Examples (such as Compounds 63, 64, and 66 to 76) were evaluated. Cells were seeded in 96-well plates (5000 cells/well). The next day, the serially diluted drugs were added into the wells and incubated at 37° C. for 48 h. Cell viability was measured by the MTT assay and is expressed as percentages of surviving drug-treated cells relative to untreated control cells. The IC50 was calculated by non-linear regression analysis.
The cytotoxicity to normal cells of Compound 75 was evaluated.

For `COc1ccc(N(Cc2ccc(C(=O)NO)cc2)C(=O)c2cc(C(C)C)c(O)cc2O)cc1` [Compound 75, 2,4-Dihydroxy-N-(4-hydroxycarbamoyl-benzyl)-5-isopropyl-N-(4-methoxy-phenyl)-benzamide], in assay [1], the “acetylation of α-tubulin and histone H3” value is “enhances the acetylation of α-tubulin and histone H3”. Also, the IC50 in assay [2] was more than 20 µM.
